Source: the supplement of paper PMC10307832

Legend:
Assay in all cases: relative viability (nuclei count vs DMSO), 5 days (fraction); higher = more cells survive
NCI-H1623 = test system: NCI-H1623
Method in brief: (§1)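 Lung cancer cell lines were pin-tool dosed in 1536-well plates on the day after seeding, with either a lone drug or a fixed anchor-drug dose plus five library-drug doses (not always all listed) in √10 steps. Nuclei were counted on 4× images after 5 days. Relative viability is the ratio of treated-well to vehicle-well nuclei counts, with each value a median of duplicate plates.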

A549 = test system: A549
Method in brief: as §1

HCC-78 = test system: HCC-78
Method in brief: as §1

NCI-H2342 = test system: NCI-H2342
Method in brief: as §1

NCI-H522 = test system: NCI-H522
Method in brief: as §1

NCI-H2009 = test system: NCI-H2009
Method in brief: as §1

NCI-H661 = test system: NCI-H661
Method in brief: as §1

NCI-H460 = test system: NCI-H460
Method in brief: as §1

SMILES: O=c1cc(N2CCOCC2)oc2c(-c3cccc4c3sc3ccccc34)cccc12 + N=C(N)NC(=N)NCCc1ccccc1 [Phenformin] (partner 250 µM)
- relative viability (NCI-H1623; first compound 0.01 µM): 0.565
- relative viability (NCI-H1623; first compound 0.03162 µM): 0.619
- relative viability (NCI-H1623; first compound 0.1 µM): 0.324
- relative viability (NCI-H1623; first compound 0.3162 µM): 0.585
- relative viability (NCI-H1623; first compound 1 µM): 0.545
- relative viability (A549; first compound 0.01 µM): 0.201
- relative viability (A549; first compound 0.03162 µM): 0.143
- relative viability (A549; first compound 0.1 µM): 0.0905
- relative viability (A549; first compound 0.3162 µM): 0.167
- relative viability (A549; first compound 1 µM): 0.183
- relative viability (HCC-78; first compound 0.01 µM): 0.738
- relative viability (HCC-78; first compound 0.03162 µM): 0.652
- relative viability (HCC-78; first compound 0.1 µM): 0.388
- relative viability (HCC-78; first compound 0.3162 µM): 0.622
- relative viability (HCC-78; first compound 1 µM): 0.627
- relative viability (NCI-H2342; first compound 0.01 µM): 0.575
- relative viability (NCI-H2342; first compound 0.03162 µM): 0.59
- relative viability (NCI-H2342; first compound 0.1 µM): 0.601
- relative viability (NCI-H2342; first compound 0.3162 µM): 0.621
- relative viability (NCI-H2342; first compound 1 µM): 0.576
- relative viability (NCI-H522; first compound 0.01 µM): 0.724
- relative viability (NCI-H522; first compound 0.03162 µM): 0.662
- relative viability (NCI-H522; first compound 0.1 µM): 0.572
- relative viability (NCI-H522; first compound 0.3162 µM): 0.621
- relative viability (NCI-H522; first compound 1 µM): 0.618
- relative viability (NCI-H2009; first compound 0.01 µM): 0.471
- relative viability (NCI-H2009; first compound 0.03162 µM): 0.504
- relative viability (NCI-H2009; first compound 0.1 µM): 0.487
- relative viability (NCI-H2009; first compound 0.3162 µM): 0.492
- relative viability (NCI-H2009; first compound 1 µM): 0.464
- relative viability (NCI-H661; first compound 0.01 µM): 0.291
- relative viability (NCI-H661; first compound 0.03162 µM): 0.278
- relative viability (NCI-H661; first compound 0.1 µM): 0.28
- relative viability (NCI-H661; first compound 0.3162 µM): 0.269
- relative viability (NCI-H661; first compound 1 µM): 0.285
- relative viability (NCI-H460; first compound 0.01 µM): 0.285
- relative viability (NCI-H460; first compound 0.03162 µM): 0.522
- relative viability (NCI-H460; first compound 0.1 µM): 0.558
- relative viability (NCI-H460; first compound 0.3162 µM): 0.505
- relative viability (NCI-H460; first compound 1 µM): 0.544

SMILES: CCN(CC)CCCCNc1ncc2cc(-c3cc(OC)cc(OC)c3)c(NC(=O)NC(C)(C)C)nc2n1 + Cc1nc(Nc2ncc(C(=O)Nc3c(C)cccc3Cl)s2)cc(N2CCN(CCO)CC2)n1 [Dasatinib] (partner 0.075 µM)
- relative viability (NCI-H1623; first compound 0.01 µM): 0.504
- relative viability (NCI-H1623; first compound 0.03162 µM): 0.449
- relative viability (NCI-H1623; first compound 0.1 µM): 0.579
- relative viability (NCI-H1623; first compound 0.3162 µM): 0.571
- relative viability (NCI-H1623; first compound 1 µM): 0.516
- relative viability (HCC-78; first compound 0.01 µM): 0.46
- relative viability (HCC-78; first compound 0.03162 µM): 0.361
- relative viability (HCC-78; first compound 0.1 µM): 0.493
- relative viability (HCC-78; first compound 0.3162 µM): 0.421
- relative viability (HCC-78; first compound 1 µM): 0.364
- relative viability (NCI-H2342; first compound 0.01 µM): 0.296
- relative viability (NCI-H2342; first compound 0.03162 µM): 0.345
- relative viability (NCI-H2342; first compound 0.1 µM): 0.321
- relative viability (NCI-H2342; first compound 0.3162 µM): 0.332
- relative viability (NCI-H2342; first compound 1 µM): 0.31
- relative viability (NCI-H522; first compound 0.01 µM): 0.862
- relative viability (NCI-H522; first compound 0.03162 µM): 1.01
- relative viability (NCI-H522; first compound 0.1 µM): 1
- relative viability (NCI-H522; first compound 0.3162 µM): 0.879
- relative viability (NCI-H522; first compound 1 µM): 0.79
- relative viability (NCI-H2009; first compound 0.01 µM): 0.299
- relative viability (NCI-H2009; first compound 0.03162 µM): 0.316
- relative viability (NCI-H2009; first compound 0.1 µM): 0.347
- relative viability (NCI-H2009; first compound 0.3162 µM): 0.292
- relative viability (NCI-H2009; first compound 1 µM): 0.246
- relative viability (NCI-H661; first compound 0.01 µM): 0.906
- relative viability (NCI-H661; first compound 0.03162 µM): 0.841
- relative viability (NCI-H661; first compound 0.1 µM): 1.1
- relative viability (NCI-H661; first compound 0.3162 µM): 1.03
- relative viability (NCI-H661; first compound 1 µM): 0.644
- relative viability (NCI-H460; first compound 0.01 µM): 0.538
- relative viability (NCI-H460; first compound 0.03162 µM): 0.464
- relative viability (NCI-H460; first compound 0.1 µM): 0.81
- relative viability (NCI-H460; first compound 0.3162 µM): 0.709
- relative viability (NCI-H460; first compound 1 µM): 0.395

SMILES: CCN(CC)CCCCNc1ncc2cc(-c3cc(OC)cc(OC)c3)c(NC(=O)NC(C)(C)C)nc2n1 + CCNC(=O)c1noc(-c2cc(C(C)C)c(O)cc2O)c1-c1ccc(CN2CCOCC2)cc1 [Luminespib] (partner 0.01 µM)
- relative viability (NCI-H1623; first compound 0.01 µM): 0.605
- relative viability (NCI-H1623; first compound 0.03162 µM): 0.54
- relative viability (NCI-H1623; first compound 0.1 µM): 0.443
- relative viability (NCI-H1623; first compound 0.3162 µM): 0.607
- relative viability (NCI-H1623; first compound 1 µM): 0.722
- relative viability (NCI-H2342; first compound 0.01 µM): 0.775
- relative viability (NCI-H2342; first compound 0.03162 µM): 0.833
- relative viability (NCI-H2342; first compound 0.1 µM): 0.768
- relative viability (NCI-H2342; first compound 0.3162 µM): 0.633
- relative viability (NCI-H2342; first compound 1 µM): 0.811
- relative viability (NCI-H522; first compound 0.01 µM): 1.14
- relative viability (NCI-H522; first compound 0.03162 µM): 1.08
- relative viability (NCI-H522; first compound 0.1 µM): 1.15
- relative viability (NCI-H522; first compound 0.3162 µM): 1.13
- relative viability (NCI-H522; first compound 1 µM): 1.11
- relative viability (NCI-H2009; first compound 0.01 µM): 1.15
- relative viability (NCI-H2009; first compound 0.03162 µM): 0.983
- relative viability (NCI-H2009; first compound 0.1 µM): 1.13
- relative viability (NCI-H2009; first compound 0.3162 µM): 1.1
- relative viability (NCI-H2009; first compound 1 µM): 0.931
- relative viability (NCI-H661; first compound 0.01 µM): 0.922
- relative viability (NCI-H661; first compound 0.03162 µM): 0.964
- relative viability (NCI-H661; first compound 0.1 µM): 0.968
- relative viability (NCI-H661; first compound 0.3162 µM): 0.982
- relative viability (NCI-H661; first compound 1 µM): 0.925
- relative viability (NCI-H460; first compound 0.01 µM): 0.0378
- relative viability (NCI-H460; first compound 0.03162 µM): 0.0357
- relative viability (NCI-H460; first compound 0.1 µM): 0.0341
- relative viability (NCI-H460; first compound 0.3162 µM): 0.0358
- relative viability (NCI-H460; first compound 1 µM): 0.0473

SMILES: COc1nc(C)cnc1NS(=O)(=O)c1cccnc1-c1ccc(-c2nnco2)cc1 [Zibotentan] + CCNC(=O)c1noc(-c2cc(C(C)C)c(O)cc2O)c1-c1ccc(CN2CCOCC2)cc1 [Luminespib] (partner 0.01 µM)
- relative viability (NCI-H1623; first compound 0.08 µM): 0.427
- relative viability (NCI-H1623; first compound 0.8 µM): 0.445
- relative viability (NCI-H1623; first compound 2.53 µM): 0.486
- relative viability (NCI-H2342; first compound 0.08 µM): 0.702
- relative viability (NCI-H2342; first compound 0.253 µM): 0.617
- relative viability (NCI-H2342; first compound 0.8 µM): 0.652
- relative viability (NCI-H2342; first compound 2.53 µM): 0.738
- relative viability (NCI-H522; first compound 0.08 µM): 1.26
- relative viability (NCI-H522; first compound 0.253 µM): 1.02
- relative viability (NCI-H522; first compound 0.8 µM): 1.13
- relative viability (NCI-H522; first compound 2.53 µM): 1.09
- relative viability (NCI-H2009; first compound 0.08 µM): 0.959
- relative viability (NCI-H2009; first compound 0.253 µM): 1.03
- relative viability (NCI-H2009; first compound 0.8 µM): 1.08
- relative viability (NCI-H2009; first compound 2.53 µM): 1
- relative viability (NCI-H661; first compound 0.08 µM): 0.953
- relative viability (NCI-H661; first compound 0.253 µM): 0.836
- relative viability (NCI-H661; first compound 0.8 µM): 0.922
- relative viability (NCI-H661; first compound 2.53 µM): 0.922
- relative viability (NCI-H460; first compound 0.08 µM): 0.036
- relative viability (NCI-H460; first compound 0.253 µM): 0.0258
- relative viability (NCI-H460; first compound 0.8 µM): 0.0276
- relative viability (NCI-H460; first compound 2.53 µM): 0.0332
